Assay results: paper PMC10607160 (International Journal of Molecular Sciences, 2023)

Columns and labels:
human GnRHR I = target: T1, human GnRHR I (Homo sapiens, UniProt P30968); test: Competitive radioligand binding (125I-DTyr6-His5-GnRH) on membranes from HEK 293 cells stably expressing GnRHR I; settings: competition with 125I-DTyr6-His5-GnRH, HEK 293 membranes, 4 °C 16-19 h, one-site model; read-out: apparent binding affinity (IC50)
T1 construct: expressed in transfected cells
T1 sequence (P30968 1-328): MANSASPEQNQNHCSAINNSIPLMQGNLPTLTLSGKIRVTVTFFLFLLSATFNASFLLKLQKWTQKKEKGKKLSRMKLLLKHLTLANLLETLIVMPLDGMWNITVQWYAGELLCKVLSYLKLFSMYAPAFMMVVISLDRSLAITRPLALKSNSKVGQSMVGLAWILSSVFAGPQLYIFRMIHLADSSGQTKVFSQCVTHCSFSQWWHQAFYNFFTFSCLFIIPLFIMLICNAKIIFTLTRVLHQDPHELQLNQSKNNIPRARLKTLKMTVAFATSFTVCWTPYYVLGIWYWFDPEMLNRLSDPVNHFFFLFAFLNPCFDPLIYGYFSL

[1] = target: E. coli Trx1 / E. coli TrxR (thioredoxin system) (Escherichia coli, UniProt P0AA25); test: Disulfide bond reduction assay by EcoTrx1 (NADPH absorbance at 340 nm); format: biochemical; settings: for Absorbance Asample1 / Absorbance Asample2 / Absorbance Average1, 2: A340, with TrxR
Procedure: The assay employed was based on changes in the absorbance at 340 nm from the oxidation of NADPH using a modified version of the protocol laid out in [90]. Briefly, the decrease in A340 was measured in 96-well plates containing 100 μL of 200 mM potassium phosphate pH 7.4, 1 mM EDTA, 0.1 mg/mL BSA, 200 μM NADPH, 2 μM E. coli Trx1 and 10 nM E. coli TrxR for 5 min at 25 °C with insulin at a final concentration of 0.067 mM (0.2 mM disulfides) (see Table S2). The reduction of con7 was measured at a final concentration of 0.2 mM (see Table S3). Blanks were samples without EcoTrxR.
Figure 4 Reduction of (A) con7 and (B) insulin by EcoTrx1. The assay mixture contains 200 mM potassium phosphate pH 7.4, 1 mM EDTA, 0.1 mg/mL BSA, 200 μM NADPH, 2 μM Escherichia coli Trx1, 10 nM E. coli TrxR, (A) 0.2 mM con7 or (B) 0.067 mM (0.2 mM disulfides) insulin. The reaction was carried out at 25 °C by monitoring the decrease of NADPH absorbance at 340 nm for (A) con7 in the absence ( [drawing 1] ) or presence of TrxR ( [drawing 2] ) and (B) insulin in the absence ( [drawing 3] ) or presence of TrxR ( [drawing 4] ).

[2] = Solubility issue noted in the binding experiments; format: physicochemical; settings: in binding assay
Procedure: The data were fitted to a one-site competition model via nonlinear regression and the IC50 values were determined as described in Section 3.4.

Chain of E. coli Trx1 / E. coli TrxR (thioredoxin system) (P0AA25 2-109): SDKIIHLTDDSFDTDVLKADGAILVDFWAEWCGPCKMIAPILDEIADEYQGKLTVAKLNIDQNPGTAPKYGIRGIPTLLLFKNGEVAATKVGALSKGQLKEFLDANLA

CCNC(=O)[C@@H]1CCCN1C(=O)[C@H](CCCNC(=N)N)NC(=O)[C@H](CC(C)C)NC(=O)[C@@H](CCCCNC(=O)CCCCCNC(=O)CCSSCC(=O)OCCNCCNc1ccc(NCCNCCO)c2c1C(=O)c1c(O)ccc(O)c1C2=O)NC(=O)[C@H](Cc1ccc(O)cc1)NC(=O)[C@H](CO)NC(=O)[C@H](Cc1c[nH]c2ccccc12)NC(=O)[C@H](Cc1c[nH]cn1)NC(=O)[C@@H]1CCC(=O)N1 [con7]
IC50 (human GnRHR I): 0.06 nM | speed of reduction compared with insulin ([1]; 0.2 mM con7 vs 0.067 mM insulin (0.2 mM disulfides), 25 °C): more rapid | Absorbance Asample1 ([1]; 0 sec): 1.004 | Absorbance Asample2 ([1]; 0 sec): 0.982 | Absorbance Average1, 2 ([1]; 0 sec): 0.993 | Absorbance Asample1 ([1]; 9 sec): 1.004 | Absorbance Asample2 ([1]; 9 sec): 0.980 | Absorbance Average1, 2 ([1]; 9 sec): 0.992 | Absorbance Asample1 ([1]; 18 sec): 1.004 | Absorbance Asample2 ([1]; 18 sec): 0.981 | Absorbance Average1, 2 ([1]; 18 sec): 0.992 | Absorbance Asample1 ([1]; 27 sec): 1.003 | Absorbance Asample2 ([1]; 27 sec): 0.980 | Absorbance Average1, 2 ([1]; 27 sec): 0.991 | Absorbance Asample1 ([1]; 36 sec): 1.002 | Absorbance Asample2 ([1]; 36 sec): 0.978 | Absorbance Average1, 2 ([1]; 36 sec): 0.990 | Absorbance Asample1 ([1]; 45 sec): 1.000 | Absorbance Asample2 ([1]; 45 sec): 0.979 | Absorbance Average1, 2 ([1]; 45 sec): 0.989 | Absorbance Asample1 ([1]; 54 sec): 1.000 | Absorbance Asample2 ([1]; 54 sec): 0.977 | Absorbance Average1, 2 ([1]; 54 sec): 0.988 | Absorbance Asample1 ([1]; 63 sec): 0.999 | Absorbance Asample2 ([1]; 63 sec): 0.977 | Absorbance Average1, 2 ([1]; 63 sec): 0.988 | Absorbance Asample1 ([1]; 72 sec): 0.999 | Absorbance Asample2 ([1]; 72 sec): 0.976 | Absorbance Average1, 2 ([1]; 72 sec): 0.987 | Absorbance Asample1 ([1]; 81 sec): 0.998 | Absorbance Asample2 ([1]; 81 sec): 0.973 | Absorbance Average1, 2 ([1]; 81 sec): 0.985 | Absorbance Asample1 ([1]; 90 sec): 0.997 | Absorbance Asample2 ([1]; 90 sec): 0.974 | Absorbance Average1, 2 ([1]; 90 sec): 0.985 | Absorbance Asample1 ([1]; 99 sec): 0.996 | Absorbance Asample2 ([1]; 99 sec): 0.972 | Absorbance Average1, 2 ([1]; 99 sec): 0.984 | Absorbance Asample1 ([1]; 108 sec): 0.996 | Absorbance Asample2 ([1]; 108 sec): 0.971 | Absorbance Average1, 2 ([1]; 108 sec): 0.983 | Absorbance Asample1 ([1]; 117 sec): 0.995 | Absorbance Asample2 ([1]; 117 sec): 0.971 | Absorbance Average1, 2 ([1]; 117 sec): 0.983 | Absorbance Asample1 ([1]; 126 sec): 0.994 | Absorbance Asample2 ([1]; 126 sec): 0.970 | Absorbance Average1, 2 ([1]; 126 sec): 0.982 | Absorbance Asample1 ([1]; 135 sec): 0.992 | Absorbance Asample2 ([1]; 135 sec): 0.968 | Absorbance Average1, 2 ([1]; 135 sec): 0.980 | Absorbance Asample1 ([1]; 144 sec): 0.991 | Absorbance Asample2 ([1]; 144 sec): 0.967 | Absorbance Average1, 2 ([1]; 144 sec): 0.979 | Absorbance Asample1 ([1]; 153 sec): 0.990 | Absorbance Asample2 ([1]; 153 sec): 0.966 | Absorbance Average1, 2 ([1]; 153 sec): 0.978 | Absorbance Asample1 ([1]; 162 sec): 0.990 | Absorbance Asample2 ([1]; 162 sec): 0.966 | Absorbance Average1, 2 ([1]; 162 sec): 0.978 | Absorbance Asample1 ([1]; 171 sec): 0.989 | Absorbance Asample2 ([1]; 171 sec): 0.964 | Absorbance Average1, 2 ([1]; 171 sec): 0.977 | Absorbance Asample1 ([1]; 180 sec): 0.989 | Absorbance Asample2 ([1]; 180 sec): 0.965 | Absorbance Average1, 2 ([1]; 180 sec): 0.977 | Absorbance Asample1 ([1]; 189 sec): 0.989 | Absorbance Asample2 ([1]; 189 sec): 0.964 | Absorbance Average1, 2 ([1]; 189 sec): 0.977 | Absorbance Asample1 ([1]; 198 sec): 0.988 | Absorbance Asample2 ([1]; 198 sec): 0.962 | Absorbance Average1, 2 ([1]; 198 sec): 0.975 | Absorbance Asample1 ([1]; 207 sec): 0.986 | Absorbance Asample2 ([1]; 207 sec): 0.961 | Absorbance Average1, 2 ([1]; 207 sec): 0.974 | Absorbance Asample1 ([1]; 216 sec): 0.987 | Absorbance Asample2 ([1]; 216 sec): 0.960 | Absorbance Average1, 2 ([1]; 216 sec): 0.974 | Absorbance Asample1 ([1]; 225 sec): 0.985 | Absorbance Asample2 ([1]; 225 sec): 0.959 | Absorbance Average1, 2 ([1]; 225 sec): 0.972 | Absorbance Asample1 ([1]; 234 sec): 0.984 | Absorbance Asample2 ([1]; 234 sec): 0.957 | Absorbance Average1, 2 ([1]; 234 sec): 0.971 | Absorbance Asample1 ([1]; 243 sec): 0.984 | Absorbance Asample2 ([1]; 243 sec): 0.955 | Absorbance Average1, 2 ([1]; 243 sec): 0.970 | Absorbance Asample1 ([1]; 252 sec): 0.982 | Absorbance Asample2 ([1]; 252 sec): 0.954 | Absorbance Average1, 2 ([1]; 252 sec): 0.968 | Absorbance Asample1 ([1]; 261 sec): 0.982 | Absorbance Asample2 ([1]; 261 sec): 0.952 | Absorbance Average1, 2 ([1]; 261 sec): 0.967 | Absorbance Asample1 ([1]; 270 sec): 0.980 | Absorbance Asample2 ([1]; 270 sec): 0.952 | Absorbance Average1, 2 ([1]; 270 sec): 0.966 | Absorbance Asample1 ([1]; 279 sec): 0.981 | Absorbance Asample2 ([1]; 279 sec): 0.951 | Absorbance Average1, 2 ([1]; 279 sec): 0.966 | Absorbance Asample1 ([1]; 288 sec): 0.979 | Absorbance Asample2 ([1]; 288 sec): 0.949 | Absorbance Average1, 2 ([1]; 288 sec): 0.964 | Absorbance Asample1 ([1]; 297 sec): 0.978 | Absorbance Asample2 ([1]; 297 sec): 0.949 | Absorbance Average1, 2 ([1]; 297 sec): 0.963 | reduction of disulfide bond by the thioredoxin system ([1]; decrease of NADPH absorbance over time in samples containing TrxR): successful

CCNC(=O)[C@@H]1CCCN1C(=O)[C@H](CCCNC(=N)N)NC(=O)[C@H](CC(C)C)NC(=O)[C@@H](CSSCC(=O)NCCCCNc1ccc(O)c2c1C(=O)c1ccccc1C2=O)NC(=O)[C@H](Cc1ccc(O)cc1)NC(=O)[C@H](CO)NC(=O)[C@H](Cc1c[nH]c2ccccc12)NC(=O)[C@H](Cc1c[nH]cn1)NC(=O)[C@@H]1CCC(=O)N1 [con4]
solubility [2]: solubility issues
